Among the test systems are OVCAR-5 ovarian; LOX IMVI melanoma; SK-MEL-28 melanoma; MDA-MB-231 breast; COLO 205 colon; MOLT-4 leukemia; K-562 leukemia; SK-MEL-2 melanoma; MDA-MB-435; NCI/ADR-RES ovarian; SNB-75 CNS; TK-10 renal; UO-31 renal.
Holding throughout (experiment): NCI tumour cell line growth inhibition, 48 h

Among the data in PubChem BioAssay (NCI) are TGI and GI50 values, retold here.

Values joined by “and” are separate entries in the source; they are usually repeats but may differ in a detail not shown here. Identical values can stand only once.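 Each compound was tested at five concentrations against cells in 96-well plates for 48 hours. GI50: concentration for 50% inhibition of growth. At the TGI there is no net growth.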 Some results are limits rather than exact numbers.

Consider `CC(=O)OCC1OC(n2c(C)c(C(C)=O)c(-c3ccco3)c(C#N)c2=S)C(OC(C)=O)C(OC(C)=O)C1OC(C)=O` (configuration not stated), for which the TGI in the experiment with OVCAR-5 ovarian, with LOX IMVI melanoma, in the experiment on SK-MEL-28 melanoma, with MDA-MB-231 breast, with COLO 205 colon and in the experiment on MOLT-4 leukemia was greater than 100 µM throughout. The TGI in the experiment with K-562 leukemia was greater than 100 µM; in the experiment on SK-MEL-2 melanoma, 98.4 µM and > 100 µM; in the experiment on MDA-MB-435, greater than 100 µM; in the experiment with NCI/ADR-RES ovarian, greater than 100 µM; with SNB-75 CNS, 82.1 µM; in the experiment with TK-10 renal, greater than 100 µM. For the same molecule, the GI50 with SK-MEL-2 melanoma was 27.4 µM and 74.4 µM; in the experiment with SNB-75 CNS, 0.171 µM.
Take `CNc1cc([N+](=O)[O-])ccc1C(=O)N1CCC[C@H]1CO`: the TGI in the experiment with OVCAR-5 ovarian, with LOX IMVI melanoma, in the experiment on SK-MEL-28 melanoma, with MDA-MB-231 breast, with UO-31 renal and in the experiment on MOLT-4 leukemia was greater than 100 µM throughout. Also, the TGI in the experiment with K-562 leukemia, in the experiment with SK-MEL-2 melanoma, with MDA-MB-435, with NCI/ADR-RES ovarian, in the experiment on SNB-75 CNS and with TK-10 renal was greater than 100 µM each time.
Consider `C=CCCCCCCCCCP(=O)(c1ccccc1)c1ccc2c(c1)OCCOCCOCCOCCO2` (configuration not stated), for which the TGI came out at 31.2 µM in the experiment with OVCAR-5 ovarian; 29 µM with LOX IMVI melanoma; 30.1 µM in the experiment with SK-MEL-28 melanoma; 31 µM in the experiment with COLO 205 colon; 22.7 µM in the experiment with UO-31 renal; 24.9 µM with MOLT-4 leukemia. Moreover, the TGI with K-562 leukemia amounted to 24.6 µM; with SK-MEL-2 melanoma it was 31.9 µM; with SNB-75 CNS it was 33.1 µM; with TK-10 renal, 32.4 µM.
For the molecule `O=C(O)CCC(NC(=O)c1ccc(Nc2cnc3cc(C(F)(F)F)ccc3n2)cc1)C(=O)O` (configuration not stated), the TGI in the experiment with OVCAR-5 ovarian, with LOX IMVI melanoma, in the experiment with SK-MEL-28 melanoma, in the experiment on COLO 205 colon, in the experiment with UO-31 renal and in the experiment with MOLT-4 leukemia was greater than 100 µM in each case. Further, the TGI with K-562 leukemia, with SK-MEL-2 melanoma, with NCI/ADR-RES ovarian and in the experiment with SNB-75 CNS was greater than 100 µM in each case.
With `Cc1cc(=O)oc2c1cc1ccc3cccc4ccc2c1c34`, the TGI with LOX IMVI melanoma, in the experiment on SK-MEL-28 melanoma, with COLO 205 colon, with UO-31 renal, in the experiment with MOLT-4 leukemia and in the experiment on K-562 leukemia was greater than 100 µM throughout. The figures for the TGI in the experiment on SK-MEL-2 melanoma, with SNB-75 CNS and with TK-10 renal were greater than 100 µM, 98.4 µM and greater than 100 µM, respectively.
Regarding `C=C(C)[C@H]1CC[C@@]23O[C@@H]2[C@@H](C[C@@]2(C)CC(=O)[C@H](CC(=O)C1)O2)OC(=O)[C@@]12CC[C@H](C(=C)C)CC(=O)C[C@H]4O[C@](C)(CC4=O)C[C@@H](OC3=O)[C@@H]1O2`, the TGI in the experiment with OVCAR-5 ovarian, with LOX IMVI melanoma, with SK-MEL-28 melanoma, in the experiment on MDA-MB-231 breast, in the experiment on COLO 205 colon and in the experiment with UO-31 renal was greater than 100 µM in each case. For the same molecule, the TGI in the experiment with MOLT-4 leukemia, in the experiment with K-562 leukemia, in the experiment on SK-MEL-2 melanoma, in the experiment on MDA-MB-435, in the experiment with NCI/ADR-RES ovarian and in the experiment with SNB-75 CNS was greater than 100 µM each time. Further, in the experiment with TK-10 renal, the TGI is greater than 100 µM.
For `O=C(NN1C(=O)CS(=O)(=O)C1c1ccc(Cl)c(Cl)c1)c1ccncc1` (configuration not stated), the TGI in the experiment with OVCAR-5 ovarian was greater than 100 µM; with LOX IMVI melanoma it was greater than 100 µM; with SK-MEL-28 melanoma, greater than 100 µM; in the experiment with COLO 205 colon it was greater than 100 µM; with UO-31 renal, greater than 100 µM; in the experiment with MOLT-4 leukemia, greater than 71.8 µM. Besides, the TGI with K-562 leukemia, with SK-MEL-2 melanoma, in the experiment on NCI/ADR-RES ovarian and with SNB-75 CNS was greater than 100 µM in each case.
For the molecule `ICC1CCCO1` (configuration not stated), the TGI with OVCAR-5 ovarian, with LOX IMVI melanoma, in the experiment on SK-MEL-28 melanoma, with COLO 205 colon, in the experiment with MOLT-4 leukemia and in the experiment on SK-MEL-2 melanoma was greater than 100 µM in each case. Further, the TGI in the experiment with SNB-75 CNS and with TK-10 renal was greater than 100 µM each time.
Regarding `CC[C@H](C)[C@@H]([C@@H](CC(=O)N1CCC[C@H]1[C@H](OC)[C@@H](C)C(=O)NCCc1ccccc1)OC)N(C)C(=O)C(NC(=O)[C@H](C(C)C)N(C)C)C(C)C` (some centres not stated), in the experiment on OVCAR-5 ovarian, the GI50 is 0.000592 µM. Besides, the TGI in the experiment on OVCAR-5 ovarian is greater than 10 µM; in the experiment on LOX IMVI melanoma, greater than 10 µM; with SK-MEL-28 melanoma it was greater than 10 µM; in the experiment on MDA-MB-231 breast, 0.00271 µM; in the experiment with COLO 205 colon, 0.000267 µM; in the experiment with UO-31 renal, greater than 10 µM. Moreover, the TGI was greater than 10 µM with K-562 leukemia, 0.000192 µM in the experiment with MDA-MB-435, greater than 10 µM in the experiment with NCI/ADR-RES ovarian and greater than 10 µM in the experiment on TK-10 renal.
Turning to `CC(=O)[O-].CC(=O)[O-].O=C(N/N=C/c1cc(Cl)cc(Cl)c1[OH2+])c1ccncc1.[Mn+2]`, the TGI in the experiment with OVCAR-5 ovarian amounted to 8.49 µM; with LOX IMVI melanoma, 15.2 µM; with SK-MEL-28 melanoma, 25 µM; in the experiment with COLO 205 colon, 10.9 µM; with UO-31 renal it was 18.6 µM; in the experiment on MOLT-4 leukemia, 0.84 µM. Also, the TGI in the experiment with K-562 leukemia is 14.8 µM; in the experiment on SK-MEL-2 melanoma, 8.38 µM; with SNB-75 CNS, 30.2 µM; in the experiment on TK-10 renal, 27.3 µM. Moreover, in the experiment on SK-MEL-2 melanoma, the GI50 is 3.85 µM.
For the molecule `Nc1nc(SCC(=O)c2ccccc2)c2[nH]cnc2n1`, the TGI in the experiment with OVCAR-5 ovarian, in the experiment on LOX IMVI melanoma, with SK-MEL-28 melanoma, with COLO 205 colon, in the experiment on MOLT-4 leukemia and in the experiment on K-562 leukemia was greater than 100 µM each time. Also, the results for the TGI in the experiment with SK-MEL-2 melanoma, in the experiment with SNB-75 CNS and in the experiment on TK-10 renal were greater than 100 µM, 82.6 µM and greater than 100 µM, respectively.
